Measured values from publication PMC8715119, “Second-generation non-hematopoietic erythropoietin-derived peptide for neuroprotection” (Redox Biology, 2021).

Assays:
[1] = system: undifferentiated PC12 cells; experiment: Cell proliferation (MTS) under low serum; assay type: cell-based, rat; conditions: 0.5% fetal bovine serum, 48 h, reEPO 10 IU/ml, peptides 10 ng/ml, n = 5, Fig. 4c
Procedure: PC12 cells (#CRL-1721, ATCC, USA), a rat pheochromocytoma cell line derived from the adrenal medulla (#CRL-1721, ATCC, USA), were seeded on a dish, which was coated by poly L-lysine (0.01%; Sigma Chemical Co., USA), and grown in RPMI 1640 medium (#11875093, Gibco, USA), supplemented with 10% heat-inactivated horse serum (#26050088, Gibco, USA), 5% fetal bovine serum (FBS) (#SH30919.03, Hyclone, USA), and 1% penicillin/streptomycin at 37°C with 5% CO2. […]
Cell viability was evaluated by 3-[(4,5-dimethylthiazol-2-yl)-5,3-carboxymethoxyphenyl]-2-(4-sulfophenyl)-2H tetrazolium, inner salt (MTS) reduction assay (CellTiter 96 Aqueous One Solution Cell Proliferation Assay, Promega, Madison, WI, USA). […] The intracellular soluble formazan produced by cellular reduction of the MTS was determined by recording the absorbance at 490 nm using a microplate reader (VersaMax, Molecular Devices, USA). Cell proliferation was also evaluated by the MTS assay. […] The next day, the initial cell number was counted; after 48 h, under low FBS concentration (0.5%), with or without reEPO and peptides, cell number was measured by the MTS assay.

cleaved Parp1 = experiment: Immunoblot of cleaved Parp1 after hypoxia and re-oxygenation; assay type: cell-based, mouse; conditions: HT-22 cells; reEPO 0.5 IU/ml, ML1-h3 1 ng/ml; normalized by β-Actin; n = 6
Procedure: (§1) PC12 or HT-22 cells were lysed in 100 mM Tris-Cl (pH 6.8) with 4% SDS. The lysates were loaded onto sodium dodecyl sulfate-polyacrylamide gel electrophoresis (SDS-PAGE) (8–10%), and the proteins were transferred onto the nitrocellulose membrane. The membrane was blocked with 0.1% TBST and 5% non-fat dry milk at 25°C for 30 min. Primary antibodies were diluted in 0.1% TBST and 3% bovine serum albumin (BSA). The primary antibodies included anti-pJAK2 (#3776, Cell Signaling Technology, USA), anti-JAK2 (#3230, Cell Signaling Technology, USA), anti-pSTAT5 (#9351, Cell Signaling Technology, USA), anti-STAT5 ([…], Cell Signaling Technology, USA), anti-pAKT (#9271, Cell Signaling Technology, USA), anti-AKT (#9272, Cell Signaling Technology, USA), anti-pERK (#9101, Cell Signaling Technology, USA) anti-ERK (#9102, Cell Signaling Technology, USA), anti-EPOR (#sc-365662, Santa Cruz Biotechnology, USA), anti-β-Actin (Santa Cruz Biotechnology, USA), anti-Bax (Santa Cruz Biotechnology, USA), anti-cleaved Casp3 (Cell Signaling Technology, USA), and anti-cleaved Parp1 (Cell Signaling Technology, USA).
(§2) The HT-22 cells were seeded onto 96-well or 6-well plates. The next day, HT-22 cells were placed inside a sealed air-tight container consisting of an anaeropack (Mitsubishi Gas Company, Tokyo, Japan), which can induce a hypoxic atmosphere by absorbing oxygen and generating carbon dioxide. […]

ERK = experiment: Time-series immunoblot of phosphorylated ERK; assay type: cell-based, rat; conditions: PC12 cells; 1 nM; peak at 15 min, below basal at 30 min, then recovery; n = 3
Procedure: as §1

AKT = experiment: Time-series immunoblot of phosphorylated AKT; assay type: cell-based, rat; conditions: PC12 cells; 1 nM; deficient level by 30 min, maintained at 90 min; n = 3
Procedure: as §1

HT-22 cells [2] = experiment: TUNEL assay after hypoxia and re-oxygenation; assay type: cell-based, mouse; conditions: hypoxia 18 h, re-oxygenation 3 h; reEPO 0.5 IU/ml, ML1-h3 1 ng/ml; n = 5
Procedure: (§3) HT-22 cells (kindly provided by Prof. Gil-Saeng Jeong in Keimyung University), an immortalized mouse hippocampal cell line, were cultured at 37°C and 5% CO2 in Dulbecco's modified eagle medium (DMEM, Invitrogen, USA) supplemented with 10% FBS and 1% penicillin/streptomycin at 37°C and 5% CO2.
The HT-22 cells were seeded onto 96-well or 6-well plates. The next day, HT-22 cells were placed inside a sealed air-tight container consisting of an anaeropack (Mitsubishi Gas Company, Tokyo, Japan), which can induce a hypoxic atmosphere by absorbing oxygen and generating carbon dioxide. The cells were maintained in the hypoxic condition at 37°C for 18 h and re-oxygenated for 3 h at 37°C and 5% CO2. Subsequently, the cells were treated with reEPO or the peptides for 19 h before viability analysis.
We fixed the cells with 4% paraformaldehyde in PBS on a slide at 25°C, washed them with PBS, and then treated them with 3% H2O2 in methanol for 10 min. After washing with PBS, we treated the cells with 0.1% sodium citrate in 0.1% Triton X-100 on sample slides for 2 min on ice and washed again with PBS. Subsequently, we treated the cells with the TUNEL reaction mixture for 60 min at 37°C in the dark. After washing thrice with PBS, 50 μl of TUNEL peroxidase (POD) was added to the slides for 30 min at 37°C in the dark. […]

HT-22 cells [3] = experiment: Cell viability after hypoxia and re-oxygenation; assay type: cell-based, mouse; conditions: hypoxia 18 h, re-oxygenation 3 h, treatment 19 h; reEPO 0.5 IU/ml, ML1-h3 1 ng/ml; n = 12
Procedure: as §3
(§4) Cell viability was evaluated by 3-[(4,5-dimethylthiazol-2-yl)-5,3-carboxymethoxyphenyl]-2-(4-sulfophenyl)-2H tetrazolium, inner salt (MTS) reduction assay (CellTiter 96 Aqueous One Solution Cell Proliferation Assay, Promega, Madison, WI, USA). Briefly, differentiated neuronal-PC12 cells were treated with H2O2 (300 μM) with or without reEPO and peptides for 24 h. The PC12 cells were washed with PBS; 20 ul MTS solution was added to each well with 100 μl PBS, and the cells were incubated for 3 h at 37°C and 5% CO2. The intracellular soluble formazan produced by cellular reduction of the MTS was determined by recording the absorbance at 490 nm using a microplate reader (VersaMax, Molecular Devices, USA). Cell proliferation was also evaluated by the MTS assay. Undifferentiated PC12 cells were seeded into a 96-well plate (5x10^4 cells/well). The next day, the initial cell number was counted; after 48 h, under low FBS concentration (0.5%), with or without reEPO and peptides, cell number was measured by the MTS assay.
The HT-22 cells were seeded onto 96-well or 6-well plates. […]

Bax = experiment: Immunoblot of Bax after hypoxia and re-oxygenation; assay type: cell-based, mouse; conditions: HT-22 cells; reEPO 0.5 IU/ml, ML1-h3 1 ng/ml; normalized by β-Actin; n = 6
Procedure: as §1, §2

EPOR = experiment: Time-series immunoblot of EPOR protein level; assay type: cell-based, rat; conditions: PC12 cells; 1 nM; normalized by β-Actin; n = 3
Procedure: as §1

cleaved Caspase 3 = experiment: Immunoblot of cleaved Caspase 3 after hypoxia and re-oxygenation; assay type: cell-based, mouse; conditions: HT-22 cells; reEPO 0.5 IU/ml, ML1-h3 1 ng/ml; normalized by β-Actin; n = 6
Procedure: as §1, §2

[4] = system: differentiated neuronal PC12 cells; experiment: Cell viability (MTS) under H2O2-induced oxidative stress; assay type: cell-based, rat; conditions: H2O2 for 24 h; reEPO 0.5 IU/ml, ML1 1 ng/ml or ML1 analogs; n = 5; Fig. 4a
Procedure: PC12 cells (#CRL-1721, ATCC, USA), a rat pheochromocytoma cell line derived from the adrenal medulla (#CRL-1721, ATCC, USA), were seeded on a dish, which was coated by poly L-lysine (0.01%; Sigma Chemical Co., USA), and grown in RPMI 1640 medium (#11875093, Gibco, USA), supplemented with 10% heat-inactivated horse serum (#26050088, Gibco, USA), 5% fetal bovine serum (FBS) (#SH30919.03, Hyclone, USA), and 1% penicillin/streptomycin at 37°C with 5% CO2. For neuronal differentiation, PC12 cells were plated at a density of 1.25x10^3 cell/cm^2 into 96-well plates coated with collagen 1 (#354236, BD Biosciences, USA) and grown in RPMI 1640 medium supplemented with 50 ng/ml nerve growth factor (NGF) (BD Biosciences, USA) and 0.5% FBS for 10 days. The NGF-supplemented media was replaced with fresh media every 3 days during neuronal differentiation.
as §4

“reEPO: Recombinant human EPO (Epoetin-α, CJ HealthCare Corporation)” was tested, and the “Cell proliferation (cell number)” value [1] was “significantly increased the proliferation”, the “Level of cleaved Parp1 under H/R” value (cleaved Parp1) was “efficiently reduced the levels of Bax, cleaved Caspase 3, and cleaved Parp1” and the “Level of phosphorylated ERK (pERK) over time” value (ERK) was “acutely increased the level of phosphorylated ERK”. For the same substance, the “Level of phosphorylated AKT (pAKT) over time” value (AKT) was “gradually reduced phosphorylated AKT”, the “TUNEL-positive cells under H/R” value (HT-22 cells [2]) was “dramatically decreased the TUNEL-positive cells” and the “Cell viability under H/R” value (HT-22 cells [3]) was “suppressed the loss of cell viability”. The “Level of Bax under H/R” value (Bax) was “efficiently reduced the levels of Bax”, the “Level of EPOR protein over time” value (EPOR) was “gradually decreased by reEPO for 15–45 min, and subsequently, it rapidly recovered to the basal level at 60 min” and the “Level of cleaved Caspase 3 under H/R” value (cleaved Caspase 3) was “efficiently reduced the levels of Bax, cleaved Caspase 3”. For the same substance, the “Cell death under H2O2-induced oxidative stress (cell viability)” value [4] was “significantly suppressed the cell death”.
